This passage reports IC50 results from ChEMBL document CHEMBL1201862, “PubChem BioAssay data set” (2004).

The IC50 is the concentration at which inhibition is half-maximal.

The assay concerns the target Envelope glycoprotein gp160 (Human immunodeficiency virus 1, UniProt Q6QLK5). The assay can be described thus: cell-free HIV fusion peptide-binding blockers – biochemical, uHTS, fluorescence dequenching, […] (AID 1986).

Activity calls are given as the source filed them. No stated cut-off is given here; in the data, actives have a measured IC50 and inactives only a lower limit.

Envelope glycoprotein gp160, sequence (Q6QLK5 whole entry, the tested form may be a part): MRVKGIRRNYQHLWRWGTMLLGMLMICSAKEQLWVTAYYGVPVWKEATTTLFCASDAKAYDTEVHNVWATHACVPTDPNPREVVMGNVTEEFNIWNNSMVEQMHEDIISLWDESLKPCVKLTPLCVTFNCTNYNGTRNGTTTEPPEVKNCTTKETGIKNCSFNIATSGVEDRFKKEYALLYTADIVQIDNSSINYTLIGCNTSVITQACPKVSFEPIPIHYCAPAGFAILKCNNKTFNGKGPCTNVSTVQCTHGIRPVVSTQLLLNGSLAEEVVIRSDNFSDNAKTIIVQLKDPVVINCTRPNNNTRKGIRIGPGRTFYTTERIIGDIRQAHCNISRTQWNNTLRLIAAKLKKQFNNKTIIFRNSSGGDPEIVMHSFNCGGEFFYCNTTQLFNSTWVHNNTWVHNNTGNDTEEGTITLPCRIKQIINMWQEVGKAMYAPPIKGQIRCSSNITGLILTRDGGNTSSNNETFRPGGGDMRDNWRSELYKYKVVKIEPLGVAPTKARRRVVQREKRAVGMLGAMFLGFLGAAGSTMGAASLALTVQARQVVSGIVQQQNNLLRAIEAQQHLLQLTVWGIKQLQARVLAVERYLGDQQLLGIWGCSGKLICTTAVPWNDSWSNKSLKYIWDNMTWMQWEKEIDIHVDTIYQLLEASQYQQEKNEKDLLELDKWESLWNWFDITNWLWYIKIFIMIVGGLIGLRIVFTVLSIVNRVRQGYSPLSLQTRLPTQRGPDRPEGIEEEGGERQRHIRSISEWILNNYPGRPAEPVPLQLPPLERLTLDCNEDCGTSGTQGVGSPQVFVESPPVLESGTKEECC

`O=C(CN1C(=O)/C(=C2\SC(=S)N(CCS(=O)(=O)O)C2=O)c2ccccc21)Nc1cccc(Br)c1`: the IC50 is 9.81 µM (active).
